Active and inactive are the calls of the source. The rule behind the calls is not given here.
Columns and labels:
[1] = Induction of nitric oxide release in water/DMSO mixture irradiated with 100W Hg lamp at 450 to 480 nm by […] complex-based ESR spin trapping method; assay type: physicochemical; details: buffer, 0.48 µM
[2] = Induction of nitric oxide release in water/DMSO mixture irradiated with 100W Hg lamp at 330 to 380 nm at 1 mM by […] complex-based ESR spin trapping method; assay type: physicochemical; details: buffer, 0.38 µM
[3] = tested on: HCT-116; assay: Induction of nitric oxide release in human HCT116 cells at 25 uM preincubated for 1 hr followed by irradiation with 950 nm pulse laser for 1 sec by confocal microscopic analysis; assay type: functional, cell-based
[4] = tested on: HCT-116; assay: Induction of nitric oxide release in human HCT116 cells at 25 uM incubated for 1 hr by confocal microscopic analysis in absence of irradiation; assay type: functional, cell-based
[5] = Induction of nitric oxide release in water/DMSO mixture irradiated with 100W Hg lamp at 450 to 480 nm at 1 mM by […] complex-based ESR spin trapping method; assay type: physicochemical; details: buffer, 0.48 µM

Structure (SMILES) | Activity [1] | Activity [2] | Activity [3] | Activity [4] | Activity [5]
Cc1cc(/C=C/c2ccc(C(=O)Nc3ccc(-c4c5ccc(=O)cc-5oc5cc(O)ccc45)c(C(=O)O)c3)cc2)cc(C)c1[N+](=O)[O-] | Not Active | – | – | – | –
Cc1cc(/C=C/c2ccc(/C=C/c3ccc(-c4c5ccc(=O)cc-5oc5cc(O)ccc45)c(C(=O)O)c3)cc2)cc(C)c1[N+](=O)[O-] | – | Active | Active | inactive | Active

From ChEMBL document CHEMBL3600289, “A double bond-conjugated dimethylnitrobenzene-type photolabile nitric oxide donor with improved two-photon cross section” (Bioorg Med Chem Lett, 2015)
